We go through 7 substances from patent US3951949A, “Sulfates of hydroxyethyl starch” (Ajinomoto Co., Inc., priority 1973, dated 1976).

The target in one experiment is bovine serum albumin (Bos taurus, UniProt P02769). Description: Inhibition of heat denaturation of serum protein (turbidity). Conditions: 0.5 (W/V) % bovine serum albumin, test substance 3 × 10^-3 M per repeating unit, 1/15M phosphate buffer PH=5.4, 67°C 3 minutes. On the procedure:
Inhibition of heat denaturation of serum proteins is widely used for screening potential pharmaceutical agents for anti-inflammatory activity. The test is described in "Inhibition of Heat Denaturation of Serum Protein," Y. Mizushima, Arch. Int. Pharmacodyn.
In the test, the sodium salt of hydroxyethyl starch sulfate was dissolved in 1/15M phosphate suffer solution (PH=5.4) and to the solution the same phosphate buffer solution containing 1% bovine serum albumin was added in a 1:1 volume ratio. The solution was stirred at 25°C for 20 minutes and then stirred at 67°C for 3 minutes and cooled. The turbidity of the test solutions thus obtained was compared with that of a solution obtained by adding 1/15M phosphate buffer solution containing 1% bovine serum albumin to 1/15M phosphate buffer solution in a 1:1 volume ratio, and the inhibition degree of heat denaturation were calculated.

Another experiment has as its system pepsin. In words: Pepsin inhibition activity. As to conditions: 0.30% aqueous solution (PH=1.8) 1 ml; 20 μg pepsin 1 ml; 1.5% bovine hemoglobin 1 ml; 30°C, 10 min. Format: biochemical. On the procedure:
The pepsin inhibition activity of the products of the invention was tested. The anti-ulcer activity of the compounds of the invention is evident.
*0.30% Sulfate of hydroxyethyl starch aqueous solution (PH=1.8) 1 ml; 20
μ g pepsin aqueous solution (PH=1.8) 1 ml; 1.5% Bovine hemoglobin

Another experiment has as its system hyaluronidase. Description: Hyaluronidase inhibition activity. The format is biochemical. Conditions: 0.16% in phosphate buffer (PH=7.0) 0.25 ml; hyaluronic acid phosphate buffer (PH=5.3) 0.5 ml; bovine serum albumin buffer (PH=3.75) 5.0 ml; 38°C, 45 minutes. On the procedure:
Hyaluronidase inhibition activities of sulfate of hydroxyethyl starch were tested.
*0.16% Sulfate of hydroxyethyl starch phosphate buffer (PH=7.0) 0.25 ml;
hyaluronic acid phosphate buffer (PH=5.3) 0.5 ml; Bovine serum albumin
phosphate buffer (PH=3.75) 5.0 ml 38°C, 45 minutes.

bovine serum albumin, sequence (P02769 25-607): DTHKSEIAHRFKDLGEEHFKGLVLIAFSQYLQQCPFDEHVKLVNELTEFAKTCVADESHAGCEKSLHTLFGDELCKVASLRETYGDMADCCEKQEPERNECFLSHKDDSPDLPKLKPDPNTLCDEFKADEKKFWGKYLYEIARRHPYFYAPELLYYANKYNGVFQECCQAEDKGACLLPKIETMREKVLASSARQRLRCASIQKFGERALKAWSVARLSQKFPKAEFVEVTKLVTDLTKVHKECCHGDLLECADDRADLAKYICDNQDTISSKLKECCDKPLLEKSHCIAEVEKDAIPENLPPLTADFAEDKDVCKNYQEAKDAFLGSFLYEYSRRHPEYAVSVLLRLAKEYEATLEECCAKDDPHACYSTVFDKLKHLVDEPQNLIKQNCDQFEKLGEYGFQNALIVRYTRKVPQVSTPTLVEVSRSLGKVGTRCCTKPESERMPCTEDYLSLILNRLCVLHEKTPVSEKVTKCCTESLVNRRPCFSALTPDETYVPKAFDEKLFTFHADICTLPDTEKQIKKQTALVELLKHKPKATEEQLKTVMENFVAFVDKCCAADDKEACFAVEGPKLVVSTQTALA

As to “Sodium Salt of Sulfate of Hydroxyethyl Starch [Example 14.5]”, the “Inhibition Ratios of Heat Denaturation of Bovine Serum Albumin” value (“Inhibition Ratios” for short) at bovine serum albumin (3 min, 3000 µM) was 98.8%. As for “sodium salts of sulfate of hydroxyethyl starch [Ex. 6]”, the “Pepsin Inhibition Ratio” value in the experiment on pepsin was 83%. Moreover, the “Inhibition Ratios” value on bovine serum albumin worked out at 93.4%. The “Inhibition Ratio (hyaluronidase)” value with hyaluronidase stood at 96%.

For the substance “Sodium Salt of Sulfate of Hydroxyethyl Starch [Example 6.3]”, the “Inhibition Ratios” value on bovine serum albumin (3 min, 3000 µM) was 98.1%. In the case of “Sodium Salt of Sulfate of Hydroxyethyl Starch [Example 11.1]”, the “Inhibition Ratios” value on bovine serum albumin (3 min, 3000 µM) was found to be 97.6%. Same read-out and setting: as for “Sodium Salt of Sulfate of Hydroxyethyl Starch [Example 1.6]”, the figure is 97.9%. In the case of “Hydroxyethyl Starch [reference compound]”, the “Pepsin Inhibition Ratio” value in the experiment with pepsin is reported as 1%. In addition, the “Inhibition Ratio (hyaluronidase)” value in the experiment with hyaluronidase is reported as 10%. “Sodium Salt of Sulfate of Hydroxyethyl Starch [Example 8.2]”: the “Inhibition Ratios” value on bovine serum albumin (3 min, 3000 µM) is 98.1%.
